Measurements from patent US12365684B2, “Short-acting benzodiazepine salts and their polymorphic forms” (priority 2006, dated 2025).
Several values for one entry are separate records, joined by “and”; a condition that tells them apart may be missing. Equal values may be shown once. Read-outs that look alike come from different tables or passages of the source.

How the values were obtained:
[1] = Observed solubility of compound of formula (I) besylate in solvents; type: physicochemical; settings: approximate
Excerpt: The compound also has an excess of Hydrogen bond acceptors and therefore will be suitably partnered by Hydrogen bond donating solvents. It is thus expected that the compound will prefer solubilisation in a range of polar organic solvents such as the alcohols, particularly those which provide a partially lipophillic, Hydrogen bond donating environment. This has been borne out by experimental evidence (details of solvents used are given in Example 8):
Values quoted are approximate, but experimentally confirmed.

[2] = Gravimetric Vapour Sorption (GVS); type: physicochemical; settings: 25° C., 0-90% RH range
Experimental: All samples were run on a Hiden IGASorp moisture sorption analyser running CFRSorp software. Sample sizes were typically 10 mg. A moisture adsorption desorption isotherm was performed as outlined below (2 scans giving 1 complete cycle). All samples were loaded/unloaded at typical room humidity and temperature (40% RH, 25° C.). All samples were analysed by XRPD post GVS analysis. The standard isotherm was performed at 25° C. at 10% RH intervals over a 0-90% RH range unless otherwise stated.

[3] = Thermodynamic aqueous solubility; type: physicochemical; settings: water, 25° C., 24 hrs
Experimental: This was measured by suspending sufficient compound in 0.25 ml of solvent (water) to give a maximum final concentration of 10 mg/ml of the parent free form of the compound. The suspension was equilibrated at 25° C. for 24 hrs followed by a pH check and filtration through a glass fibre C 96 well plate. The filtrate is then diluted down 101x. Quantitation was by HPLC with reference to a standard dissolved in DMSO at approx 0.1 mg/ml. Different volumes of the standard, diluted and undiluted tests were injected. The solubility was calculated by integration of the peak area found at the same retention time as the peak maximum in the standard injection. If there is sufficient solid in the filter plate the XRPD is normally checked for phase changes, hydrate formation, amorphization, crystallization etc.

[4] = Polymorphism maturation experiment (solvent slurries), HPLC purity post 1 week; type: physicochemical; settings: heat/cool cycle ambient to 60° C., starting hplc purity 97.7%
Experimental: The solid was slurried in various solvents (see Table 11) for one week on a heat/cool cycle from ambient to 60° C. After one week the slurries were evaporated and the solids analysed by XRPD and HPLC.
• Method: Gradient, Reverse Phase • Method Duration/min: 34 • Column: Phenomenex Gemini C18 5 μm (2.0×50 mm) (Guard cartridge Phenomenex Gemini C18 guard cartridge 2×4 mm) • Column Temperature/° C.: 40 • Injection/μl: 5 • Flow Rate ml/min: 0.8 • Detection: UV • Wavelength/nm: 255 (bandwidth of 90 nm), 240 (bandwidth of 80 nm), 254 (bandwidth of 8 nm) • Phase A: 2 mmol NH4HCO3 (adjusted to pH10 with NH3 solution) Phase B: acetonitrile Timetable: […]

mice = test: Anaesthetic and sedative effects: loss of the righting reflex (LRR) after i.v. administration; type: in vivo; settings: for NUMBER OF MICE WITH LRR: eight mice per group; for LRR DURATION, mean: maximum = 90 minutes after injection
Experimental: The anaesthetic and sedative effects of the besylate salt Form 1 of the present invention was evaluated. The besylate (benzenesulfonic acid) salt was dissolved in physiological saline for administration of the test composition to the animal. The test composition was administered to mice, placed in individual Plexiglas cages (20×10×10 cm). Mice were injected with either vehicle or test substance by the intravenous route. The latency to sleep and the duration of anaesthesia (maximum: 90 minutes after test-substance administration) were recorded. Anaesthesia is indicated by loss of the righting reflex (LRR). The righting reflex test was performed as soon as the animals appear sedated, approximately every 20-30 seconds. Once the righting reflex is absent, duration of loss of righting reflex was measured by testing for the return of the righting reflex approximately every 20-30 seconds thereafter. Eight mice were studied per group and the test was performed blind.

[5] = Solid-state stability study of compound of formula (I) (appearance, HPLC content); type: physicochemical
Experimental: Method/Technique. 2 mg samples of compound of formula (I), accurately weighed, were placed in 4-mL clear glass screw-cap vials. Samples were tested at initial and after 34 days stored at 5° C./Ambient Relative Humidity (AMRH) Closed, 30° C./60% RH Closed, 40° C./75% RH Open and 60° C./AMRH Closed.

[6] = pKa determination (potentiometric titration, Sirius GlpKa); type: physicochemical; settings: MeOH:H2O mixtures, MeOH:H2O mixtures at 25° C., extrapolated to 0% co-solvent
Experimental: pka determination was performed on a Sirius GlpKa instrument with D-PAS attachment. Measurements were made by potentiometric titration in MeOH:H2O mixtures at 25° C. The titration media was ionic strength adjusted with 0.15M KCl. The values found in the MeOH:H2O mixtures were extrapolated to 0% co-solvent via a Yasuda-Shedlovsky extrapolation.

COC(=O)CC[C@@H]1N=C(c2ccccn2)c2cc(Br)ccc2-n2c(C)cnc21.O=S(=O)(O)c1ccccc1 [compound of formula (I) besylate]
solubility ([1]; Water): 2 mg/mL
solubility ([1]; organic solvent or mixture, 1,2-ethanediol): 60 mg/mL
solubility ([1]; organic solvent or mixture, 1,4-dioxan): 1 mg/mL
solubility ([1]; organic solvent or mixture, 2,2,2-trifluoroethanol): 1000 mg/mL
solubility ([1]; organic solvent or mixture, 2-ethoxyethanol): 20 mg/mL
solubility ([1]; organic solvent or mixture, 2-methoxyethanol): 167 mg/mL
solubility ([1]; organic solvent or mixture, Acetone): 2 mg/mL
solubility ([1]; organic solvent or mixture, Acetonitrile): > 20 mg/mL
solubility ([1]; organic solvent or mixture, Chloroform): < 0.4 mg/mL
solubility ([1]; organic solvent or mixture, Dichloromethane): < 0.3 mg/mL
solubility ([1]; organic solvent or mixture, Dimethyl sulfoxide): 500 mg/mL
solubility ([1]; organic solvent or mixture, Dimethylacetamide): 200 mg/mL
solubility ([1]; organic solvent or mixture, Dimethylformamide): 300 mg/mL
solubility ([1]; organic solvent or mixture, Ethanol): 100 mg/mL
solubility ([1]; organic solvent or mixture, Ethyl acetate): 0.2 mg/mL
solubility ([1]; organic solvent or mixture, Formamide): 350 mg/mL
solubility ([1]; organic solvent or mixture, Hexafluoropropan-2-ol): > 700 mg/mL
solubility ([1]; organic solvent or mixture, Methanol): 400 mg/mL
solubility ([1]; organic solvent or mixture, Methylbenzoate): 2 mg/mL
solubility ([1]; organic solvent or mixture, Propan-1-ol): 15 mg/mL
solubility ([1]; organic solvent or mixture, Propan-2-ol): 4.8 mg/mL
solubility ([1]; organic solvent or mixture, Tetrahydrofuran): 2.5 mg/mL

COC(=O)CC[C@@H]1N=C(c2ccccn2)c2cc(Br)ccc2-n2c(C)cnc21.O=S(=O)(O)c1ccccc1 [besylate Form 1]
GVS uptake [2]: 2.0%
solubility [3]: 8.3 mg/mL
HPLC purity post 1 week ([4]; slurried in 1,4-Dioxane): 97.2 % area
HPLC purity post 1 week ([4]; slurried in 2.5% aq 1,4-Dioxane): 86 % area
HPLC purity post 1 week ([4]; slurried in 2.5% aq DCM): 97.4 % area
HPLC purity post 1 week ([4]; slurried in 2.5% aq IPA): 76.1 % area
HPLC purity post 1 week ([4]; slurried in 2.5% aq MEK): 93.9 % area
HPLC purity post 1 week ([4]; slurried in 2.5% aq MIBK): 97.3 % area
HPLC purity post 1 week ([4]; slurried in 2.5% aq MeCN): 93.3 % area
HPLC purity post 1 week ([4]; slurried in 2.5% aq THF): 93.3 % area
HPLC purity post 1 week ([4]; slurried in 2.5% aq acetone): 96.8 % area
HPLC purity post 1 week ([4]; slurried in DCM): 97.4 % area
HPLC purity post 1 week ([4]; slurried in IPA): 97.1 % area
HPLC purity post 1 week ([4]; slurried in MEK): 97.2 % area
HPLC purity post 1 week ([4]; slurried in MIBK): 97.7 % area
HPLC purity post 1 week ([4]; slurried in MeCN): 94.3 % area
HPLC purity post 1 week ([4]; slurried in MtBE): 97.7 % area
HPLC purity post 1 week ([4]; slurried in THF): 97.6 % area
HPLC purity post 1 week ([4]; slurried in acetone): 97.5 % area
HPLC purity post 1 week ([4]; slurried in iPrOAc): 97.5 % area
NUMBER OF MICE WITH LRR (mice; 20.4 mg/kg i.v.): 2
LRR DURATION, mean (mice; 20.4 mg/kg i.v.): 1.7 min
LATENCY TO LRR, mean ± s.e.m. (mice; 27.2 mg/kg i.v.): 3.0 ± 0.2 min
NUMBER OF MICE WITH LRR (mice; 27.2 mg/kg i.v.): 5+
LRR DURATION, mean (mice; 27.2 mg/kg i.v.): 4.9 min
LATENCY TO LRR, mean ± s.e.m. (mice; 34 mg/kg i.v.): 1.8 ± 0.2 min
NUMBER OF MICE WITH LRR (mice; 34 mg/kg i.v.): 6++
LRR DURATION, mean (mice; 34 mg/kg i.v.): 6.0 min
LATENCY TO LRR, mean ± s.e.m. (mice; 40.8 mg/kg i.v.): 1.6 ± 0.5 min
NUMBER OF MICE WITH LRR (mice; 40.8 mg/kg i.v.): 6++
LRR DURATION, mean (mice; 40.8 mg/kg i.v.): 7.3 min

COC(=O)CC[C@@H]1N=C(c2ccccn2)c2cc(Br)ccc2-n2c(C)cnc21 [compound of formula (I), Methyl 3-[(4S)-8-bromo-1-methyl-6-(2-pyridinyl)-4H-imidazol [1,2-a][1,4]benzodiazepin-4-yl]propanoate]
% Relative to Avg. Initial % area ([5]; 5 C./AMRH Closed, 34 days): 100.52%
Appearance ([5]; 5 C./AMRH Closed, 34 days): Cream to light yellow powder
Compound of Formula (I) Content % area ([5]; 5 C./AMRH Closed, 34 days): 95.30 % area
Compound of Formula (I) Content % w/w ([5]; 5 C./AMRH Closed, 34 days): 102.6 % w/w
% Relative to Avg. Initial % area ([5]; 30 C./60% RH Closed, 34 days): 99.36%
Appearance ([5]; 30 C./60% RH Closed, 34 days): Cream to light yellow powder
Compound of Formula (I) Content % area ([5]; 30 C./60% RH Closed, 34 days): 94.20 % area
Compound of Formula (I) Content % w/w ([5]; 30 C./60% RH Closed, 34 days): 94.7 % w/w
drop in content relative to the initial % area ([5]; 30° C./60% RH Closed, 34 days): approximately 0.6%
% Relative to Avg. Initial % area ([5]; 40 C./75% RH Open, 34 days): 98.57% and 98.50%
Compound of Formula (I) Content % area ([5]; 40 C./75% RH Open, 34 days): 93.45 % area and 93.39 % area
Compound of Formula (I) Content % w/w ([5]; 40 C./75% RH Open, 34 days): 105.4 % w/w and 100.3 % w/w
% Relative to Avg. Initial % area ([5]; 60 C./AMRH Closed, 34 days): 92.57%
Compound of Formula (I) Content % area ([5]; 60 C./AMRH Closed, 34 days): 87.77 % area
Compound of Formula (I) Content % w/w ([5]; 60 C./AMRH Closed, 34 days): 93.4 % w/w and 91.1 % w/w
decrease of average % w/w content from the initial value ([5]; 34 days at 60° C./AMRH Closed): 10 % w/w
Appearance ([5]; RT, initial): Cream to light yellow powder
Compound of Formula (I) Content % area ([5]; RT, initial): 95.14 % area and 94.47 % area
Compound of Formula (I) Content % w/w ([5]; RT, initial): 100.5 % w/w and 104.1 % w/w
Avg. Initial % area ([5]; RT, initial, average of two samples): Avg = 94.81 % area
time stable with respect to appearance and content ([5]; stored at 5° C./AMRH Closed): at least 34 days
pKa ([6]; read-out: pKa of the basic centre of the imidazole ring): ~5
pKa ([6]; read-out: pKa of the basic centre of the pyridine ring): ~2
